“Also recorded” adds a separate entry of the source.
Columns and labels:
NDM-1 = NDM-1 (Klebsiella pneumoniae, UniProt C7C422); test: Inactivation kinetics; assay type: biochemical; parameters: All β-lactamase overexpression constructs were generated without the leader peptide in a pET-28b plasmid containing a N-terminal His Tag; His tag (N, cleaved yes); SUMO (implied by the use of SUMO protease) (N, cleaved yes); made in house; host or cells: E. coli BL21(DE3)
Experimental: NDM-1 (50 nM) was added to 20 μM nitrocefin containing AM-A in serial ½ dilutions from 8 μM. The assay was performed in 50 mM HEPES pH 7.5, 200 μL final volume. The assay was read in 96-well microplate format at 490 nm using a Spectramax reader (Molecular Devices) for 10 minutes at 37° C. VIM-2 (10 nM) was added to 20 μM nitrocefin containing AM-A in serial ½ dilutions from 16 μM. The assay was performed in 50 mM HEPES pH 7.5, 200 μL final volume. The assay was read in 96-well microplate format at 490 nm using a Spectramax reader (Molecular Devices) for 10 minutes at 37° C. as reported previously. For all assays experiments the offset between reaction initiation and the first read was ˜6s.
Rate constants characterizing the inactivation of enzyme were calculated based on the dependence of the pseudo-first order rate constant, ki, upon AM-A concentration according to the following model:
[formula] where E•Zn, A, E•Zn•A, and Zn•A are the active metalloenzyme, AM-A, the ternary metalloenzyme-AM-A complex, and AM-A-metal complex, respectively. Ki represents the dissociation constant of the ternary complex and k+2 is the rate constant for dissociation of ternary complex into inactivated enzyme (Einact) and AM-A-Zn complex. […]
[formula] […] The individual values of Ki and k+2 were determined by fitting the value of ki to equation 2 as described previously^25: […]

NDM positives isolates = test: Clinical isolate screening with meropenem; assay type: cell-based, Enterobacteriaceae, Acinetobacter spp. and Pseudomonas spp.; details: AM-A 8 μg/ml, meropenem 2 μg/ml
Experimental: (§1) Various concentrations of AM-A were chosen in combination with 2 mg/L of meropenem which is the EUCAST breakpoint for resistance^28. Synergistic properties of the two compounds were examined in a micro-titre tray using BHI as the growth medium (Oxford Science Park, England) and an inoculum of 0.5 MacFarland. All plates contained the control strains Escherichia coli ATCC 25922 and Pseudomonas aeruginosa ATCC 27853. Overall, 226 non-clonal clinical isolates (Enterobacteriaceae, P. aeruginosa and Acinetobacter spp.) were challenged containing one of the following MBLs: SPM-1 (n=17), AIM-1 (n=8), NDM-1 (n=67), VIM-type (n=114) or IMP-type (n=20). […] Plates were incubated at 37° C. and read after 18 hrs.

[1] = system: SPM-1-expressing isolates; test: Clinical isolate screening with meropenem; assay type: cell-based, Enterobacteriaceae, Acinetobacter spp. and Pseudomonas spp.; details: meropenem 2 μg/ml, AM-A 8 μg/ml
Experimental: as §1

IMP-expressing isolates = test: Clinical isolate screening with meropenem; assay type: cell-based, Enterobacteriaceae, Acinetobacter spp. and Pseudomonas spp.; details: meropenem 2 μg/ml, AM-A 8 μg/ml
Experimental: as §1

VIM positive isolates = test: Clinical isolate screening with meropenem; assay type: cell-based, Enterobacteriaceae, Acinetobacter spp. and Pseudomonas spp.; details: AM-A 8 μg/ml, meropenem 2 μg/ml
Experimental: as §1

AIM-expressing isolates = test: Clinical isolate screening with meropenem; assay type: cell-based, Enterobacteriaceae, Acinetobacter spp. and Pseudomonas spp.; details: meropenem 2 μg/ml, AM-A 8 μg/ml
Experimental: as §1

IMP-7 = test: Incubation of AM-A with metalloenzymes in Zn2+-depleted buffer; assay type: biochemical; details: extended incubation, AM-A 0.5 mM
Experimental: 20 μL of the above was diluted with 180 μL nitrocefin or FAPGG substrate for the following final concentrations: Enzyme (50 nM), FAPGG (50 μM)/nitrocefin (20 μM), AM-A (50 μM). Buffer (50 mM HEPES pH 7.5, 300 mM NaCl) was stirred overnight with 2 g/100 mL Chelex-100 (Biorad; Richmond, Calif.). Assays were read in 96-well microplate format at 490 nm using a Spectramax reader (Molecular Devices) at 37° C.

K. pneumoniae N11-2218 = test: Mouse systemic infection, organ bacterial load; assay type: in vivo, CD1 mice
Description: All animals were housed in specific pathogen-free units in the Central Animal Facility at McMaster University. All experimental protocols were approved by, and performed in accordance with the McMaster Animal Research Ethics Board. Female CD1 mice were purchased from Charles River.
Mice were infected intraperitoneally (ip) with a dose of 2×10^6 colony forming units (cfu) of Klebsiella pneumoniae N11-2218 for all organ bacterial load experiments, or with a dose of 5×10^7cfu for all survival experiments. For all organ bacterial load experiments, mice were euthanized 48 hours post infection, and spleen and liver were harvested. Organs were placed into 1 mL sterile PBS on ice, and then homogenized (Mixer Mill 400; Retsch). Organ homogenates were then serially diluted in PBS, and plated on Brilliant Green agar (Oxoid) for cfu enumeration. For survival curves, mice were monitored for endpoint. For all experiments, mice were treated 30 minutes post infection with a specified subcutaneous dose of either PBS, meropenem, AM-A inhibitor, or a combination of both antibiotic and inhibitor.

Chain of NDM-1 (C7C422 29-270 limits assumed): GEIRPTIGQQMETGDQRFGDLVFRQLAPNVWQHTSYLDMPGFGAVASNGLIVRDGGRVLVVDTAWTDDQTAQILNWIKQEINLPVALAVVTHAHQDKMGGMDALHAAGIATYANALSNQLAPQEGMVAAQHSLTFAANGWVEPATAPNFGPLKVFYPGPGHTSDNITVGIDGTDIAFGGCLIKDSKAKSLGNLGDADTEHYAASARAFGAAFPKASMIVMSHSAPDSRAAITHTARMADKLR

## N[C@H](CN[C@H](CN[C@@H](CC(=O)O)C(=O)O)C(=O)O)C(=O)O [AM-A, aspergillomarasmine A]
NDM-1
  Ki: 11 nM
NDM-1; time-dependent inactivation
  k+2 (inactivation rate constant): 0.0062 s⁻¹
NDM positives isolates
  isolates with meropenem sensitivity restored: 88%
  susceptibility to meropenem/AM-A combination: highly susceptible
[1]
  potentiation of meropenem / susceptibility to combination: very little potentiation; also recorded: remained resistant
IMP-expressing isolates
  potentiation of meropenem / susceptibility to combination: very little potentiation; also recorded: remained resistant
VIM positive isolates
  isolates with meropenem sensitivity restored: 90%
  susceptibility to meropenem/AM-A combination: highly susceptible
AIM-expressing isolates
  potentiation of meropenem / susceptibility to combination: very little potentiation; also recorded: remained resistant
IMP-7
  inhibition of activity in IMP-7: ~70%
K. pneumoniae N11-2218; AM-A alone
  bacterial load in tissues: unaffected
K. pneumoniae N11-2218; combination meropenem 10 mg/kg + AM-A 10 mg/kg, single dose, 48 hours post infection
  bacterial load in the spleen: significantly reduced
